US12409171B2, “Pharmaceutically active pyrazolo-pyridone modulators of DCN1/2-mediated cullin neddylation” (UNIVERSITY OF KENTUCKY RESEARCH FOUNDATION, priority 2019, dated 2025)

Target: DCN1 (Homo sapiens (Human), UniProt Q96GG9)
Test: TR-FRET binding assay (biotin-DCN1 / Ac-UBE2M12-AlexaFluor488)
Details: mean ± SD (n); read-out: DCN1_TRFRET Mean EC50
Procedure: • IC50 values were generated using our TR-FRET binding assay and are represented as the mean of three replicates with errors reported as the standard deviation.
The assay cocktail was then incubated for 1 h at room temperature and distributed using a WellMate instrument (Matrix). Compounds to be screened were added to assay plates from DMSO stock solutions by pin transfer using 50SS pins (V&P Scientific). […] All compounds were tested in triplicate or more.

DCN1, sequence (Q96GG9 whole entry): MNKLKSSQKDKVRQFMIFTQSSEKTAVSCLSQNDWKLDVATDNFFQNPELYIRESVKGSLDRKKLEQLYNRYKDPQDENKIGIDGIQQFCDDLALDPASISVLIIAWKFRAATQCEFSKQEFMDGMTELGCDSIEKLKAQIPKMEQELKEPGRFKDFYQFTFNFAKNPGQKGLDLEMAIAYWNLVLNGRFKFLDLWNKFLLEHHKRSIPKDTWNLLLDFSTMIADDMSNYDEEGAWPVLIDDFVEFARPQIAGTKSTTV

| Compound | EC50 [nM] |
| --- | --- |
| CCN1C(=O)[C@@H](NC(=O)c2cccc(I)c2)[C@@H](c2ccc(F)cc2)c2c(C)nn(-c3ccccc3)c21 [RG-0013060, N-[(4S,5S)-7-ethyl-4-(4-fluorophenyl)-3-methyl-6-oxo-1-phenyl-1H,4H,5H,6H,7H-pyrazolo[3,4-b]pyridin-5-yl]-3-iodobenzamide] | 461 ± 29.4 |
| Cc1nn(-c2ccccc2)c2c1[C@H](c1ccc(F)cc1)[C@H](NC(=O)c1cccc(C(F)(F)F)c1)C(=O)N2C [RG-0008885, N-[(4S,5S)-4-(4-fluorophenyl)-3,7-dimethyl-6-oxo-1-phenyl-1H,4H,5H,6H,7H-pyrazolo[3,4-b]pyridin-5-yl]-3-(trifluoromethyl)benzamide] | 943 ± 86.3 |
| CCN1C(=O)[C@@H](NC(=O)c2cccc(C(F)(F)F)c2)[C@@H](c2cccs2)c2c(C)nn(-c3ccccc3)c21 [RG-0013988, N-[(4S,5S)-7-ethyl-3-methyl-6-oxo-1-phenyl-4-(thiophen-2-yl)-1H,4H,5H,6H,7H-pyrazolo[3,4-b]pyridin-5-yl]-3-(trifluoromethyl)benzamide] | 1330 ± 50.7 |
| CCN1C(=O)[C@@H](NC(=O)c2cccc(C(F)(F)F)c2)[C@@H](c2ccc(F)cc2)c2c(CNS(C)(=O)=O)nn(-c3ccccc3)c21 [RG-0014140, N-[(4S,5S)-7-ethyl-4-(4-fluorophenyl)-3-(methanesulfonamidomethyl)-6-oxo-1-phenyl-1H,4H,5H,6H,7H-pyrazolo[3,4-b]pyridin-5-yl]-3-(trifluoromethyl)benzamide] | 94.7 ± 19.7 |
| CC/C=C/C(=O)N[C@@H]1C(=O)N(CC)c2c(c(C)nn2-c2ccccc2)[C@@H]1c1ccc(F)cc1 [RG-0014157, (2E)-N-[(4S,5S)-7-ethyl-4-(4-fluorophenyl)-3-methyl-6-oxo-1-phenyl-1H,4H,5H,6H,7H-pyrazolo[3,4-b]pyridin-5-yl]pent-2-enamide] | > 30700 |
| CCN1C[C@@H](NC(=O)c2cccc(C)c2)[C@@H](c2ccc(F)cc2)c2c(C)nn(-c3ccccc3)c21 [RG-0009507, N-[(4S,5S)-7-ethyl-4-(4-fluorophenyl)-3-methyl-1-phenyl-1H,4H,5H,6H,7H-pyrazolo[3,4-b]pyridin-5-yl]-3-methylbenzamide] | > 36500 |
| CCN1C(=O)[C@@H](NC(=O)c2cc(C)cs2)[C@@H](c2ccc(F)cc2)c2c(C)nn(-c3ccccc3)c21 [RG-0014044, N-[(4S,5S)-7-ethyl-4-(4-fluorophenyl)-3-methyl-6-oxo-1-phenyl-1H,4H,5H,6H,7H-pyrazolo[3,4-b]pyridin-5-yl]-4-methylthiophene-2-carboxamide] | 785 ± 79.6 |
| CCCN1C(=O)[C@@H](N(CCC)C(=O)c2cccc(C(F)(F)F)c2)[C@@H](c2ccc(F)cc2)c2c(C)nn(-c3ccccc3)c21 [RG-0009516, N-[(4S,5S)-4-(4-fluorophenyl)-3-methyl-6-oxo-1-phenyl-7-propyl-1H,4H,5H,6H,7H-pyrazolo[3,4-b]pyridin-5-yl]-N-propyl-3-(trifluoromethyl)benzamide] | > 36500 |
| CCN1C(=O)[C@@H](NC(=O)c2cccc(C)c2)[C@@H](c2ccc(F)cc2)c2c(C)nn(CC(F)(F)F)c21 [RG-0008871, N-[(4S,5S)-7-ethyl-4-(4-fluorophenyl)-3-methyl-6-oxo-1-(2,2,2-trifluoroethyl)-1H,4H,5H,6H,7H-pyrazolo[3,4-b]pyridin-5-yl]-3-methylbenzamide] | 729 ± 90.1 |
| C=CC(=O)NCc1nn(-c2ccccc2)c2c1[C@H](c1ccc(F)cc1)[C@H](NC(=O)c1cccc(C(F)(F)F)c1)C(=O)N2CC [RG-0014047, N-[(4S,5S)-7-ethyl-4-(4-fluorophenyl)-6-oxo-1-phenyl-3-[(prop-2-enamido)methyl]-1H,4H,5H,6H,7H-pyrazolo[3,4-b]pyridin-5-yl]-3-(trifluoromethyl)benzamide] | 95.3 ± 4.67 |
| CCN1C(=O)[C@@H](NC(=O)c2cccc(Oc3ccccc3)c2)[C@@H](c2ccc(F)cc2)c2c(C)nn(-c3ccccc3)c21 [RG-0013976, N-[(4S,5S)-7-ethyl-4-(4-fluorophenyl)-3-methyl-6-oxo-1-phenyl-1H,4H,5H,6H,7H-pyrazolo[3,4-b]pyridin-5-yl]-3-phenoxybenzamide] | 5930 ± 606 |
| CCN1C(=O)[C@@H](NC(=O)c2cccc(C)c2)[C@@H](c2ccc(F)cc2)c2c(C)nn(CC)c21 [RG-0008869, N-[(4S,5S)-1,7-diethyl-4-(4-fluorophenyl)-3-methyl-6-oxo-1H,4H,5H,6H,7H-pyrazolo[3,4-b]pyridin-5-yl]-3-methylbenzamide] | 384 ± 30.6 |
| Cc1cccc(C(=O)N[C@@H]2C(=O)N(C)c3c(c(C)nn3-c3ccccc3)[C@@H]2c2ccc(F)cc2)c1 [RG-0005655, N-[(4S,5S)-4-(4-fluorophenyl)-3,7-dimethyl-6-oxo-1-phenyl-1H,4H,5H,6H,7H-pyrazolo[3,4-b]pyridin-5-yl]-3-methylbenzamide] | 446 ± 68.1 |
| CCN1C(=O)[C@@H](NC(=O)c2cccc(C(F)(F)F)n2)[C@@H](c2ccc(F)cc2)c2c(C)nn(-c3ccccc3)c21 [RG-0014061, N-[(4S,5S)-7-ethyl-4-(4-fluorophenyl)-3-methyl-6-oxo-1-phenyl-1H,4H,5H,6H,7H-pyrazolo[3,4-b]pyridin-5-yl]-6-(trifluoromethyl)pyridine-2-carboxamide] | 1110 ± 130 |
| CCOC(=O)Cn1nc(C)c2c1N(CC)C(=O)[C@@H](NC(=O)c1cccc(C(F)(F)F)c1)[C@H]2c1ccc(F)cc1 [RG-0014038, ethyl 2-[(4S,5S)-7-ethyl-4-(4-fluorophenyl)-3-methyl-6-oxo-5-[3-(trifluoromethyl)benzamido]-1H,4H,5H,6H,7H-pyrazolo[3,4-b]pyridin-1-yl]acetate] | 3530 ± 458 |
| Cc1nn(-c2ccccc2)c2c1[C@H](c1ccc(F)cc1)[C@H](N(C)C(=O)c1cccc(C(F)(F)F)c1)C(=O)N2C [RG-0008886, N-[(4S,5S)-4-(4-fluorophenyl)-3,7-dimethyl-6-oxo-1-phenyl-1H,4H,5H,6H,7H-pyrazolo[3,4-b]pyridin-5-yl]-N-methyl-3-(trifluoromethyl)benzamide] | > 36500 |
| CCN1C(=O)[C@@H](NC(=O)c2ccc(C)s2)[C@@H](c2ccc(F)cc2)c2c(C)nn(-c3ccccc3)c21 [RG-0014062, N-[(4S,5S)-7-ethyl-4-(4-fluorophenyl)-3-methyl-6-oxo-1-phenyl-1H,4H,5H,6H,7H-pyrazolo[3,4-b]pyridin-5-yl]-5-methylthiophene-2-carboxamide] | 2340 ± 77.2 |
| Cc1cccc(C(=O)N[C@@H]2C(=O)N(C)c3c(c(C)nn3C(C)(C)C)[C@@H]2c2ccc(F)cc2)c1 [RG-0007412, N-[(4S,5S)-1-tert-butyl-4-(4-fluorophenyl)-3,7-dimethyl-6-oxo-1H,4H,5H,6H,7H-pyrazolo[3,4-b]pyridin-5-yl]-3-methylbenzamide] | 2340 ± 745 |
| CCN1C(=O)[C@@H](NC(=O)c2cccc(C)c2)[C@@H](c2ccc(F)cc2)c2c(C)nn(C(C)C(F)(F)F)c21 (stereo partly drawn) [RG-0008879, N-[(4S,5S)-7-ethyl-4-(4-fluorophenyl)-3-methyl-6-oxo-1-(1,1,1-trifluoropropan-2-yl)-1H,4H,5H,6H,7H-pyrazolo[3,4-b]pyridin-5-yl]-3-methylbenzamide] | 7260 ± 1090 |
| Cc1cccc(C(=O)N[C@@H]2C(=O)N(CC(F)(F)F)c3c(c(C)nn3-c3ccccc3)[C@@H]2c2ccc(F)cc2)c1 [RG-0009509, N-[(4S,5S)-4-(4-fluorophenyl)-3-methyl-6-oxo-1-phenyl-7-(2,2,2-trifluoroethyl)-1H,4H,5H,6H,7H-pyrazolo[3,4-b]pyridin-5-yl]-3-methylbenzamide] | 7000 ± 1710 |
| CCN1C(=O)[C@@H](NC(=O)c2cccc(C(F)(F)F)c2)[C@@H](c2ccc(F)cc2)c2c(CN3CCC(C)CC3)nn(-c3ccccc3)c21 [RG-0014143, N-[(4S,5S)-7-ethyl-4-(4-fluorophenyl)-3-[(4-methylpiperidin-1-yl)methyl]-6-oxo-1-phenyl-1H,4H,5H,6H,7H-pyrazolo[3,4-b]pyridin-5-yl]-3-(trifluoromethyl)benzamide] | 82.7 ± 7.69 |
| CCOC1=Nc2c(c(C)nn2-c2ccccc2)[C@H](c2ccc(F)cc2)[C@@H]1NC(=O)c1cccc(C(F)(F)F)c1 [RG-0009518, N-[(4S,5S)-6-ethoxy-4-(4-fluorophenyl)-3-methyl-1-phenyl-1H,4H,5H-pyrazolo[3,4-b]pyridin-5-yl]-3-(trifluoromethyl)benzamide] | > 36500 |
| CC(=O)N1C(=O)[C@@H](NC(=O)c2cccc(C)c2)[C@@H](c2ccc(F)cc2)c2c(C)nn(-c3ccccc3)c21 [RG-0005656, N-[(4S,5S)-7-acetyl-4-(4-fluorophenyl)-3-methyl-6-oxo-1-phenyl-1H,4H,5H,6H,7H-pyrazolo[3,4-b]pyridin-5-yl]-3-methylbenzamide] | 5640 ± 827 |
| CCN1C(=O)[C@@H](NC(=O)c2cccc(C)c2)[C@@H](c2ccc(F)cc2)c2c(CO)nn(-c3ccccc3)c21 [RG-0008880, N-[(4S,5S)-7-ethyl-4-(4-fluorophenyl)-3-(hydroxymethyl)-6-oxo-1-phenyl-1H,4H,5H,6H,7H-pyrazolo[3,4-b]pyridin-5-yl]-3-methylbenzamide] | 173 ± 29.7 |
| CCN1C(=O)[C@@H](NC(=O)c2cccc(C(F)(F)F)c2)[C@@H](c2ccc(F)cc2)c2c(CN3CCCC3)nn(-c3ccccc3)c21 [RG-0014154, N-[(4S,5S)-7-ethyl-4-(4-fluorophenyl)-6-oxo-1-phenyl-3-[(pyrrolidin-1-yl)methyl]-1H,4H,5H,6H,7H-pyrazolo[3,4-b]pyridin-5-yl]-3-(trifluoromethyl)benzamide] | 83.5 ± 9.39 |
| CCN1C(=O)[C@@H](NC(=O)c2cccc(C(F)(F)F)c2)[C@@H](c2ccc(F)cc2)c2c(CN(C)C)nn(-c3ccccc3)c21 [RG-0014053, N-[(4S,5S)-3-[(dimethylamino)methyl]-7-ethyl-4-(4-fluorophenyl)-6-oxo-1-phenyl-1H,4H,5H,6H,7H-pyrazolo[3,4-b]pyridin-5-yl]-3-(trifluoromethyl)benzamide] | 90.7 ± 4.38 |
